Laboratory results taken from patent publication US8394399B2, “Drug-enhanced adhesion prevention” (Ethicon, Inc., priority 2004, dated 2013).
Values joined by “and” are separate entries in the source; they are usually repeats but may differ in a detail not shown here. Equal values may be shown once.

Key:
[1] = test system: adhesion formation at the sidewall injury; experiment: Rabbit peritoneal sidewall adhesion model, 1 week dosing via Alzet miniosmotic pump; format: in vivo; parameters: key to Adhesion Tenacity: 0: No adhesions; 1: mild, easily dissectible adhesions; 2: moderate adhesions; non-dissectible, does not tear organ; 3: dense adhesions; non-dissectible, tears when removed; settings: for Adhesion Area Percentage / Adhesion Tenacity: 10 microliter/hr over 7 days, sacrifice after 21 days, individual animals 1-7; for Adhesion Tenacity: score 0-3; for mean adhesion score: group mean of 7 rabbits, placebo control 100±0
Method: In the peritoneal sidewall model, rabbits were pre-anesthetized with 1.2 mg/kg acetylpromazine and anesthetized with a mixture of 55 mg/kg ketamine hydrochloride and 5 mg/kg xylazine intramuscularly. Following preparation for sterile surgery, a midline laparotomy was performed. A 3 cm×5 cm area of peritoneum and transversus abdominis muscle was removed on the right lateral abdominal wall. The cecum was exteriorized and digital pressure was exerted to create subserosal hemorrhages (trauma and loss of blood flow) over all cecal surfaces. The cecum was then returned to its normal anatomic position. Tranilast contained in a delivery vehicle as described below was placed in an Alzet® miniosmotic pump (Alza Corporation, Palo Alto, Calif.) to allow continuous release of the molecule through the postsurgical interval. The Alzet miniosmotic pump was placed in the subcutaneous space and a delivery tube connected the pump with the site of injury at the sidewall. Only the delivery vehicle was placed in the pump of control rabbits. The abdominal wall and skin were closed in a standardized manner.
After 21 days, the rabbits were sacrificed and the percentage of the area of the sidewall injury that was involved in adhesions was determined. In addition, the tenacity of the adhesion formed was scored using a system as follows:
With the sidewall model, an initial score to represent the overall extent of adhesions is given (0 to 3).
The percentage of a surface of the sidewall involved in adhesions to various organs are given in the tables below to quantify the overall adhesion score. A reduction in the area and the tenacity of the adhesions would be considered beneficial and efficacious.
(§1) The efficacy of Pemirolast in inhibiting adhesion formation was evaluated using a single pump, filled with one of three dosage levels of mg of Pemirolast per ml of delivery vehicle (0.625 mg/ml, 6.25 mg/ml or 62.5 mg/ml), or placebo control (saline). The drug was placed in an Alzet miniosmotic pump and delivered over 7 days at a rate of 10 microliter/hr. The animals were sacrificed after 21 days.

[2] = Necropsy observations in the sidewall adhesion study; format: in vivo, rabbit
Method: as §1
However, there was inflammation observed at the abdominal cavity in 1 of 7 and 3 of 7 rabbits at the medium and high dose of drug, respectively.

For `Cc1cccn2c(=O)c(-c3nnn[nH]3)cnc12` [Pemirolast, 9-methyl-3-(1H-tetrazol-5-yl)-4H-pyrido [1,2-α]pyrimidin-4-one potassium], the “Adhesion Area Percentage” value ([1]; 0.625 mg/ml in pump) was 80% (2×) and 100% (4×) and 70%, the “Adhesion Tenacity” value ([1]; 0.625 mg/ml in pump) was 1 (5×) and 2 (2×) and the mean adhesion score ([1]; 0.625 mg/ml) was 90.0±4.9. For the same compound, the “Adhesion Area Percentage” value ([1]; 6.25 mg/ml in pump) was 50% and 80% (2×) and 100% (2×) and 70% and 60%, the “Adhesion Tenacity” value ([1]; 6.25 mg/ml in pump) was 1 (6×) and 2 and the mean adhesion score ([1]; 6.25 mg/ml, p=0.007) was 77.1±7.1. For the same compound, the “Adhesion Area Percentage” value ([1]; 62.5 mg/ml in pump) was 70% (2×) and 50% (2×) and 80% (2×) and 100%, the “Adhesion Tenacity” value ([1]; 62.5 mg/ml in pump) was 2 (3×) and 1 (4×) and the mean adhesion score ([1]; 62.5 mg/ml, p=0.001) was 71.4±6.7. The “tenacity of the adhesions formed, relative to control” value ([1]; all dose groups, analysis of variance on the ranks) was “significant reductions”, the “area of adhesion formation, relative to control” value ([1]; sidewall model, reductions in the groups that received the higher doses) was “reduced the area of adhesion formation” and the “clinical signs associated with administration” value ([2]; at necropsy, all doses) was “no clinical signs”. For the same compound, the “inflammation observed at the abdominal cavity (rabbits affected)” value ([2]; high dose (62.5 mg/ml)) was 3 of 7 and the “inflammation observed at the abdominal cavity (rabbits affected)” value ([2]; medium dose (6.25 mg/ml)) was 1 of 7.
